Assay [1] deals with antibiotic-adapted S. pneumoniae T4 (aT4). The assay is described as follows: Fitness outcome under antibiotic exposure (growth curve assay). The format is cell-based, Streptococcus pneumoniae. The method, then:
(§1) To test whether a gene-panel model can be trained that predicts fitness for many different conditions, a large RNA-Seq dataset was generated for the human pathogen Streptococcus pneumoniae. […] These include cell wall synthesis inhibitors (CWSI), DNA synthesis inhibitors (DSI), protein synthesis inhibitors (PSI) and RNA synthesis inhibitors ((RSI); FIG. 1A, Tables 1 & 2). Each strain was exposed to each antibiotic for 2 to 4 hours and cells were harvested for RNA-Seq at various time points. As T4 and 19F are susceptible to most antibiotics used, the transcriptional profiles in the presence of antibiotics mostly represent cases of low fitness (FIG. 1A, sensitive strain, 1xMICWT). In order to find patterns that differentiate fitness outcomes, adapted strains were generated with increased fitness in the presence of antibiotics by serial passaging wildtype T4 and 19F in the presence of increasing amounts of antibiotics. Four independent adapted populations for each strain were selected on individual antibiotics. These adapted strains could grow in the presence of antibiotic at 1.5xMIC of the wildtype strain, albeit with a small growth defect (FIGS. 6A-6E & 6F). In parallel, RNA-Seq was performed on S. pneumoniae strains D39 and T4 in a chemically defined medium, and media from which either uracil, Glycine or L-Valine was removed, which are essential for D39 but not T4. This enabled the potential identification of a common stress signature that is shared between antibiotic exposure and nutrient deprivation, and across multiple strains. Lastly, D39 was adapted to grow in the absence of each individual nutrient, after which RNA-Seq was repeated for adapted clones (Table 1 lists all 24 strains, 67 populations and 267 RNA-Seq experiments).
(§2) S. pneumoniae strain TIGR4 (T4; NC_003028.3) is a serotype 4 strain originally isolated from a patient^3,4, Taiwan-19F (19F; NC_012469.1) is a multi-drug resistant strain^5,6 and D39 (NC_008533) is a commonly used serotype 2 strain originally isolated from a patient about 90 years ago^7. Strain PG1 and PG19 were isolated from adults with pneumococcal bacteremia infection and included in the Pneumococcal Bacteremia Collection Nijmegen (PBCN)^8. All S. pneumoniae gene numbers refer to the T4 genome. Correspondence between homologous genes among S. pneumoniae strains and gene function annotations are described herewith. Escherichia coli strain AR538, Klebsiella pneumoniae strain AR497 and Salmonella enterica subsp Typhimurium strain AR635 were clinical isolates obtained from the Center of Disease Control (CDC). Staphylococcus aureus strain MN6 was kindly provided by George Sakoulas (Center of Immunity, Infection & Inflammation, UCSD School of Medicine). Unless otherwise specified, S. pneumoniae strains were cultivated in Todd Hewitt medium with 5% yeast extract (THY) with 5 μL/mL oxyrase (Oxyrase, Inc) or on sheep's blood agar plates (Northeastern Laboratories) at 37° C. with 5% CO2. A. baumannii, E. coll. K. pneumoniae, S. aureus and S. Typhimurium were cultured in Mueller Hinton broth II (Sigma) at 37° C. with 220 rpm constant shaking. Tn-Seq and RNA-Seq experiments of S. pneumoniae under nutrient-depletion and antibiotic conditions were performed in chemically defined medium (CDM)^9 and semi-defined minimal medium (SDMM)^10, respectively. RNA-Seq experiments for A. baumannii, S. Typhimurium, E. coll. K. pneumoniae, and S. aureus were performed in Mueller Hinton broth II. Single strain growth assays were performed at least three times using 96-well plates by taking OD600 measurements on a Tecan Infinite 200 PRO plate reader.
(§3) D39 was used as the parental strain in nutrient-depletion evolution experiments; T4 and 19F were used as parental strains in antibiotic evolution experiments. […] Four replicate populations were serial passaged in CDM or SDMM as controls to identify background adaptations in nutrient or antibiotic adaptation experiments, respectively. […]

For assay [2], the system named is antibiotic-adapted S. pneumoniae 19F (a19F). The assay is described as above. The format is cell-based, Streptococcus pneumoniae. The method, then: as §1, §2, §3
Assay [3] concerns Salmonella Typhimurium AR635. The assay is described as follows: Fitness outcome under ciprofloxacin (growth curve assay). The format is cell-based. The settings on record: S. Typhimurium AR635, 1 μg/mL ciprofloxacin. The method, then:
(§4) Since the single-timepoint variant of entropy is the most practical (in terms of data collection and cost), the generalizability of entropy to previously unseen species was evaluated using this model. RNA-Seq was performed at 120 min post exposure to 1 μg/mL of CIP. […] Single-timepoint entropy was computed for the transcriptome of each of these previously unseen isolates.
as §2

For another assay, the system named is Escherichia coli AR538. The assay is described as above. The format is cell-based. The settings on record: E. coli AR538. The method, then: as §4, §2
In the next assay the test system is S. pneumoniae serotype 1. Described as above. The format is cell-based, Streptococcus pneumoniae. The settings on record: 1 μg/mL ciprofloxacin. The method, then:
as §4, §2

Assay [4] has as its system S. pneumoniae serotype 23F. The assay is described as above. The settings on record: S. pneumoniae 23F. The format is cell-based, Streptococcus pneumoniae. The method, then: as §4, §2
Assay [5] relates to Acinetobacter baumannii LAC-4. The description is as above. The format is cell-based. Conditions: A. baumannii LAC-4; 1 μg/mL ciprofloxacin.
Excerpt: as §2, with “K. pneumoniae, S. aureus and S. Typhimurium were cultured in Mueller Hinton broth II (Sigma) at 37° C. with 220 rpm constant shaking. Tn-Seq and RNA-Seq experiments of S. pneumoniae under nutrient-depletion and antibiotic conditions were performed in chemically defined medium (CDM)^9 and semi-defined minimal medium (SDMM)^10, respectively. RNA-Seq experiments for A. baumannii, S. Typhimurium, E. coll. K. pneumoniae, and S. aureus were performed in Mueller Hinton broth II.” left out

Assay [6] concerns Acinetobacter baumannii 17978. The assay is described as above. The format is cell-based. The settings on record: A. baumannii 17978; 1 μg/mL ciprofloxacin.
Excerpt: as §2, with “K. pneumoniae, S. aureus and S. Typhimurium were cultured in Mueller Hinton broth II (Sigma) at 37° C. with 220 rpm constant shaking. Tn-Seq and RNA-Seq experiments of S. pneumoniae under nutrient-depletion and antibiotic conditions were performed in chemically defined medium (CDM)^9 and semi-defined minimal medium (SDMM)^10, respectively. RNA-Seq experiments for A. baumannii, S. Typhimurium, E. coll. K. pneumoniae, and S. aureus were performed in Mueller Hinton broth II.” left out

In assay [7] the test system is S. pneumoniae strain Taiwan-19F (19F). Description: Determination of relative minimal inhibitory concentration (MIC). The format is cell-based, Streptococcus pneumoniae. Conditions: Streptococcus pneumoniae, 16 h, read-out: 1x MIC for 19F. The method, then:
(§5) Each concentration was tested in triplicate. Growth was monitored on a Tecan Infinite 200 PRO plate reader at 37° C. for 16 hours. MIC is determined as the lowest concentration that abolishes bacterial growth (FIGS. 6A-6H).

Assay [8] has as its system S. pneumoniae strain TIGR4 (T4). The description is as above. The format is cell-based, Streptococcus pneumoniae. Conditions: Streptococcus pneumoniae, lowest concentration that abolishes bacterial growth, 16 hours, 37° C., read-out: 1x MIC for T4. The method, then: as §5
For assay [9], the system named is A. baumannii ATCC 17978. The assay is described as follows: Ciprofloxacin MIC determination by growth curves. The format is cell-based. The settings on record: Acinetobacter baumannii, ATCC17978, read-out: measured MIC. The method, then: as §5
The next assay has as its system A. baumannii LAC-4. The assay is described as follows: Ciprofloxacin MIC determination by growth curves. The format is cell-based. Conditions: Acinetobacter baumannii, LAC4, read-out: measured MIC. The method, then: as §5
The test system of assay [10] is A. baumannii ATCC 17978. Description: Single time-point entropy (RNA-Seq) with linear regression MIC prediction. The format is cell-based. Conditions: Acinetobacter baumannii, ATCC17978, 2 h; read-out: predicted MIC (linear regression model on entropy).
The mark [11] stands for this setting: 1 μg/mL ciprofloxacin, listed as CIP.
[12] abbreviates: 1 μg/mL ciprofloxacin, listed as ciprofloxacin.
[13] abbreviates: strain-specific 1xMIC of ciprofloxacin.

Molecules are shown by their SMILES. Converted amounts (≈) assume the structure as drawn.

By MIC is commonly meant the least concentration at which growth counts as inhibited.

As to `O=C(O)c1cn(C2CC2)c2cc(N3CCNCC3)c(F)cc2c1=O` [Ciprofloxacin, ciprofloxacin], the Fitness entry was “High” in assay [1] (aT4, T4 adapted to the respective antibiotic, 1xMIC and 1.5-2xMIC, growth curves); “High” in [2] (a19F, 19F adapted to the respective antibiotic, 1xMIC and 1.5-2xMIC, growth curves); “Low” in assay [3]; “low fitness” in assay [3] (listed as ciprofloxacin); “High” in the assay with Escherichia coli AR538 (1 μg/mL ciprofloxacin); “insensitive” with Escherichia coli AR538 (setting [11]). Besides, the Fitness result with Escherichia coli AR538 (setting [12]) was “high fitness”; in the assay on Escherichia coli AR538 (setting [13]), “Low,”; in the assay with S. pneumoniae serotype 1, “Low”; in the assay with S. pneumoniae serotype 1 (listed as ciprofloxacin), “low fitness”; in assay [4] (1 μg/mL ciprofloxacin), “High”; in assay [4] (setting [11]) it was “insensitive”. Also, the Fitness result was “high fitness” in assay [4] (setting [12]), “Low,” in [4] (setting [13]), “High” in assay [5] and “Low” in assay [6]. Further, the “Survive (real survival outcome)” value is listed as “TRUE” in assay [1] (strain T4, Adapted TRUE, Concentration L (low)) and “TRUE” in assay [2] (strain 19F, Adapted TRUE, Concentration L (low)). The MIC is 1 µg/mL (≈ 3.02 µM) in assay [7]; 1 µg/mL (≈ 3.02 µM) in assay [8]; 0.07 µg/mL (≈ 0.211 µM) in the assay with A. baumannii ATCC 17978 [9]; 8.5 µg/mL (≈ 25.7 µM) with A. baumannii LAC-4; 0.04 µg/mL (≈ 0.121 µM) in the assay with A. baumannii ATCC 17978 [10].

These data come from patent publication US11591634B1, “Forecasting bacterial survival-success and adaptive evolution through multiomics stress-response mapping and machine learning” (priority 2019, dated 2023).
